Consider 89 compounds from a melting point compilation (Tetko et al.; mined from patent text by program, amines drawn as free bases though some values may be those of a salt).

Molecules are shown by their SMILES. A value given as a limit tells only on which side of the number the result lay.

For orientation: melting point means the temperature, or range, at which the solid turns liquid.

Take `COc1ccccc1Oc1c(NS(=O)(=O)c2cc(Cl)sc2Cl)nc(-c2ncccn2)nc1OCCOC(=O)Nc1ccccn1`: the melting point is 194 to 197 °C.
`CCOC(=O)c1cn(C2CC2)c2c(C)c(F)c(F)cc2c1=O`: the melting point lay in the range of 220 to 221 °C.
In the case of `COC(=O)C12CCC(C(=O)O)(CC1)CC2`, the melting point was 169 to 173 °C.
Take `COc1cc(OC)c(C(=O)Nc2cccc3c2CCN(C)C3)cc1OC`: the melting point fell in the range of 159 to 160 °C.
`O=C(O)C1=Cc2cc(C(=O)Cc3ccccc3)ccc2OC1C(F)(F)F` (centres undefined) showed a melting point of 159 to 164 °C.
`CCN(CC)C(=O)NC1CC2c3cccc4[nH]c(C#Cc5ccc(C#N)cc5)c(c34)CC2N(C)C1` (centres undefined): the melting point lay within 150 to 151 °C.
To `CCCCc1ccc2ncn(Cc3ccc(-c4ccccc4-c4nnnn4COC)cc3)c(=O)c2c1` belongs 112 °C; to `CC(C(=O)N(C)C)n1ccc(-c2cccc([N+](=O)[O-])c2)n1` (centres undefined), 117 to 119 °C.
`COc1ccc(CN2C=CC=C3C2=Nc2cc(C(F)(F)F)ccc2S(=O)(=O)N3C)cc1` displayed a melting point of 142 to 143 °C.
`CC1CC(=O)NN=C1c1ccc(NCCCN)c([N+](=O)[O-])c1` (centres undefined) registered a melting point of 154 to 156 °C.
To `COCCNC(=O)c1cccc(-c2cccc3nc(Cc4cccc(C(F)(F)F)c4)sc23)c1` belongs 101 to 102 °C; to `CS(=O)(=O)Nc1cc2oc(N)c(C(N)=O)c(=O)c2cc1Oc1ccccc1`, greater than 250 °C; to `CCOC(=O)C1=Cc2cccc(C(F)(F)F)c2OCC1`, 57 to 59 °C.
Compound `CC(O)(c1ccncc1)c1cnc(-c2ccc(F)cc2)s1` (centres undefined) showed a melting point of 229 to 232 °C.
To `O=C1CC(c2cccs2)=Nc2ccc(I)cc2N1` belongs greater than 260 °C; to `O=C(CS(=O)Cc1cccnc1)C12CC3CC(CC(C3)C1)C2` (centres undefined), 116 to 119 °C; to `CCOC(=O)c1nc2ccc(Cl)cc2c(=O)[nH]1`, 249 to 251 °C.
The compound `COC(=O)c1ccc(-c2nnc(-c3ccc(OC(F)(F)C(F)(F)F)cc3)o2)cc1` registered a melting point of 185 to 191 °C.
Regarding `Cc1nc2c([nH]1)C(=O)c1ccccc1C2=O`, the melting point was greater than 260 °C.
Compound `O=C1C(=O)c2ccccc2C2=C1SCC1(CCC(c3ccccc3)CC1)O2` (centres undefined) yielded a melting point of 183 to 187 °C.
On to `COC(=O)c1c(-c2ccccc2)nn2c1-c1ccccc1CC2`, for which the melting point was 112 to 113 °C.
To `C(=C\c1nc(COc2cccc(CCCn3ccnc3)c2)co1)/c1ccccc1` belongs 86 to 87 °C; to `COc1c(C)c(OC(=O)c2c(C)c(C)c(OCCCOc3ccc(F)cc3)c(C)c2OC)c(C)c(C)c1C(N)=O`, 146 to 149 °C.
As to `CCN1CCN(C(=O)c2cc(N)cc(C(F)(F)F)c2)CC1`, the melting point was found to be 104 °C.
In turn, `O=C(NCl)c1c(C(F)(F)F)cc(Cl)nc1Cl` displayed a melting point of 136 to 138 °C.
In turn, `CCCc1ccnc2c(=O)[nH]c(-c3cc(S(=O)(=O)N4CCC(C(=O)O)CC4)ccc3OCC)nc12` yielded a melting point of 262 to 264 °C.
With `NC(=O)NN=Cc1ccc(N(c2ccccc2)c2ccccc2)cc1`, the melting point lay within 106 to 114 °C.
Consider `CCOC(=O)Cc1nc2ccccc2n1-c1ccccc1`, for which the melting point lay in the range of 87 to 89 °C.
The compound `COc1ccc(N2CCOCC2)c2sc(-c3nc4c([nH]3)CCN(C(=O)c3ccc(F)cc3)CC4)nc12` displayed a melting point of 205 to 207 °C.
As to `CCCC(O)(C(=O)Nc1cc(Br)nc(OC)c1)C(C)C` (centres undefined), the melting point stood at 116 °C.
Under `CC(C)c1cc(C(C)C)cc(N(Cc2cccc(NC(=N)c3cccs3)c2)C(=O)CCc2cc(C(C)C)c(O)c(C(C)C)c2)c1` stands 144 to 145 °C; under `c1ccc(C(c2ccc3nccnc3c2)n2cnnc2)cc1` (centres undefined), 98.1 °C.
In turn, `O=C(O)C(=O)CC(=O)c1cn(Cc2ccc3ccccc3n2)c2ccccc2c1=O` came in with a melting point greater than 300 °C.
Under `N#CCOc1ccc(CN2C(=O)c3cccc(NC(=O)c4ccc(Cl)s4)c3C2=O)cc1` stands 199 °C; under `CCNC(=O)N1C[C@@H](c2c[nH]c3ccccc23)[C@H](c2cn3c4c(cccc24)CCC3)C1`, 278 to 279 °C.
On to `CC(CCC(=O)O)(Sc1cc(C(C)(C)C)c(O)c(C(C)(C)C)c1)Sc1cc(C(C)(C)C)c(O)c(C(C)(C)C)c1`, for which the melting point is 90 to 92 °C.
For `N[C@H](Cc1ccc(OC(=O)OCc2ccccc2)cc1)C(=O)O`, the melting point was 208 to 210 °C.
The compound `O=c1[nH]c2ccccc2n1CCCN1CCN(C(c2ccc(F)cc2)c2ccc(F)cc2)CC1` showed a melting point of 197 °C.
The compound `CCCCOCCCNC(c1ccccc1)C(O)c1ccccc1` (centres undefined) showed a melting point of 82 to 84 °C.
For the compound `Fc1ccc(-c2cc(Cl)ncn2)c(F)c1`, the melting point was 65 to 69 °C.
The compound `CC(C)CNc1c([N+](=O)[O-])cnc2cc(Br)cnc12` returned a melting point of 114 to 115 °C.
In turn, `CN1C(=O)C2(CCN(CC(O)C3COc4ccccc4O3)CC2)c2ccccc21` (centres undefined) registered a melting point of 113 to 128 °C.
For `COC(=O)c1cc(-c2ccc(Cl)c(C)c2)n(Cc2ccc(C)cc2)n1`, the melting point came to 98 °C.
Compound `CC(C)(CO)COc1ccc(NC(=O)c2csc3c2CCCC3)cc1C#N` returned a melting point of 148 to 150 °C.
The compound `Oc1cccc2csnc12` showed a melting point of 99 to 100 °C.
In turn, `CCc1c(C#N)oc2ccc(Br)cc12` showed a melting point of 68 to 69 °C.
For `COC(=O)c1ccc(O)c(C(=O)CC(=O)C=Cc2ccccc2)c1`, the melting point lay in the range of 138 to 140 °C.
`O=C(O)CCCCCCCCNS(=O)(=O)c1ccccc1`: the melting point was in the range of 82 to 84 °C.
In the case of `CN1CCN(C(=O)C(c2ccc(Cl)cc2)c2c(Cl)cc(-n3ncc(=O)[nH]c3=O)cc2Cl)CC1` (centres undefined), the melting point was 262 °C.
Take `CC(C)(C)[C@H](NC(=O)[C@@H](CC(=O)O)n1ccc(-c2ccc(-c3ccc(C(N)=O)cc3)cc2)c1)C(=O)Nc1ccncc1`: the melting point fell in the range of 194 to 196 °C.
To `C=CCONC(CCC)=C1C(=O)OC(CCC)=C(Br)C1=O` belongs 50 to 51 °C; to `COc1ccc(C2(C#Cc3cccc(-c4noc(C(F)(F)F)n4)c3)CCCC(=O)C2)cc1OC1CCCC1` (centres undefined), 99 to 100 °C; to `COCS(=O)(=O)c1ccc(C=C(C)c2ccc3c(c2)C(C)(C)CCC3(C)C)cc1`, 154 to 156 °C.
On to `O=C1C(=C2C=Cc3ccccc3C2)CCCC1=C1C=Cc2ccccc2C1`, for which the melting point stood at 176 °C.
The compound `Cc1nc(-n2ccc(OCc3ccc(F)cc3)cc2=O)sc1C(=O)NCc1ccc(F)cc1` displayed a melting point of 249 to 251 °C.
`CC1CN(c2ccc([N+](=O)[O-])cc2)CC(C)N1` (centres undefined) came in with a melting point of 124 to 125 °C.
Under `CCOC(=O)N(C)CCCC1=CC2(CCCC2)c2ccccc21` stands 90 °C; under `COc1ccc2cccc(N)c2c1`, 134 to 136 °C.
Consider `CCOC(=O)/C=C1\OC(=O)c2ccccc21`, for which the melting point was in the range of 132 to 134 °C.
In turn, `O=C(c1ccc(Cl)cc1)C(F)CCCl` (centres undefined) gave a melting point of 53 °C.
With `COC(=O)c1cc(N)c(N(C)C(C)=O)c(N)c1`, the melting point turned out to be 120 °C.
For `O=C1NCCC[C@@H]1NS(=O)(=O)c1cc(F)cc(F)c1`, the melting point lay in the range of 170 to 174 °C.
`O=Cc1nn(-c2ccc([N+](=O)[O-])cc2)c2c1CCC2` returned a melting point of 209 to 210 °C.
`CCc1cccc(CC)c1NC(=O)C1c2ccccc2COc2c(C)ccc(C)c21` (centres undefined) showed a melting point of 104 to 106 °C.
To `CCOC(=O)c1cnc2c(cnn2CC)c1NN=C(C)CC#N` belongs 190 to 191 °C; to `CCOC(=O)CS(=O)(=O)N(Cc1ccc(Cl)cc1)c1ccccc1CC(=O)OC`, 86 to 88 °C; to `Nc1nc2ccc(SC(F)(F)F)cc2s1`, 155 °C.
Consider `COC(=O)c1nnc(Cl)cc1NCc1ccc(OC)c(Cl)c1`, for which the melting point was 162 to 163 °C.
`CC1C(=O)N(c2ccccc2)C(=S)N1c1ccc(Oc2ccccc2Cl)cc1` (centres undefined) showed a melting point of 108 °C.
`O=[N+]([O-])c1ccc(O)c(-c2cccs2)c1`: the melting point was 130 °C.
The compound `COc1ccc(S(=O)(=O)Nc2ccccc2NC(=O)c2cccs2)cc1` came in with a melting point of 136 to 137 °C.
As to `Cc1noc(NS(=O)(=O)c2ccccc2-c2ccc(-c3ncco3)cc2CN(C)C(=O)c2ccc(F)c(F)c2)c1C`, the melting point lay in the range of 122 to 128 °C.
`CS(=O)(=O)Nc1cccc(Nc2nc(NCC(O)CO)c3nc[nH]c3n2)c1` (centres undefined) gave a melting point of 164 to 168 °C.
`C=CCNc1cccnc1S(N)(=O)=O` displayed a melting point of 134 to 135 °C.
To `Cc1c(/C=C/C(=O)c2nn(C)c3ccccc23)ncn1C(c1ccccc1)(c1ccccc1)c1ccccc1` belongs 223 to 225 °C.
`CCCc1ncc(/C=C2\C(=O)N(CC(=O)OC)c3cccc(C)c32)n1Cc1ccc(C(=O)OC)cc1`: the melting point fell in the range of 228 to 230 °C.
`CCCCN1C(=O)CC(C(=O)Nc2nccs2)C(=O)c2ccc(Cl)cc21` (centres undefined): the melting point lay in the range of 238 to 240 °C.
With `CC(C)(C)OC(=O)CN(C(=O)CNC(=O)Nc1cccc(CC(=O)O)c1)c1ccccc1C(=O)c1ccccc1`, the melting point lay in the range of 96 to 98 °C.
`CC1(O[Si](C)(C)C(C)(C)C)CN(c2ccc(N3C[C@H](CO)OC3=O)cc2F)C1` showed a melting point of 144 °C.
To `N#Cc1cc(C(=O)NN2CCOCC2)ccc1OCC(=O)O` belongs 205 to 206 °C; to `[N-]=[N+]=CC(=O)c1cccc(S(N)(=O)=O)c1`, 142 °C; to `COc1cnn(C2CCCCO2)c(=O)c1Cl` (centres undefined), 118 to 120 °C.
`CCCCNC(=O)[C@@H](C[C@H](O)[C@@H](N)CC1CCCCC1)C(C)C` returned a melting point of 88.5 to 90 °C.
Regarding `C=C(C)COc1cc(OC)cc(C(=O)OC)c1`, the melting point fell in the range of 159 to 161 °C.
`Fc1ccc(NN=Cc2cccs2)cc1` displayed a melting point of 138 to 140 °C.
`CSC(=O)c1cccc2c1[nH]c1ccccc12` came in with a melting point of 122 to 123 °C.
In turn, `O=C1OC2CCSC2Cn2cccc21` (centres undefined) showed a melting point of 167 to 168 °C.
The compound `O=C(O)Cc1cc(C=Cc2ccccc2)ccc1O` registered a melting point of 202 °C.
With `CCOC(=O)c1cc(OCC)c(OC(C)C)cc1N`, the melting point was in the range of 91 to 93 °C.
